# Source: US20190322676A1, “CERAMIDE GALACTOSYLTRANSFERASE INHIBITORS FOR THE TREATMENT OF DISEASE” (BioMarin Pharmaceutical Inc., priority 2016, published 2019)
# Counter-ions that a name gives are not always drawn.
# Molecular target: T1, human CGT (ceramide galactosyltransferase), CHO/CGT lysate (Homo sapiens, UniProt Q16880)
# T1 construct: Full-length human CGT cDNA was cloned into the BamH1/Xho1 site of pcDNA3.1 (+); expressed in transfected cells; host or cells: Chinese hamster ovary (CHO) cells; lysate prepared with M-PER
# T1 sequence (Q16880 21-541): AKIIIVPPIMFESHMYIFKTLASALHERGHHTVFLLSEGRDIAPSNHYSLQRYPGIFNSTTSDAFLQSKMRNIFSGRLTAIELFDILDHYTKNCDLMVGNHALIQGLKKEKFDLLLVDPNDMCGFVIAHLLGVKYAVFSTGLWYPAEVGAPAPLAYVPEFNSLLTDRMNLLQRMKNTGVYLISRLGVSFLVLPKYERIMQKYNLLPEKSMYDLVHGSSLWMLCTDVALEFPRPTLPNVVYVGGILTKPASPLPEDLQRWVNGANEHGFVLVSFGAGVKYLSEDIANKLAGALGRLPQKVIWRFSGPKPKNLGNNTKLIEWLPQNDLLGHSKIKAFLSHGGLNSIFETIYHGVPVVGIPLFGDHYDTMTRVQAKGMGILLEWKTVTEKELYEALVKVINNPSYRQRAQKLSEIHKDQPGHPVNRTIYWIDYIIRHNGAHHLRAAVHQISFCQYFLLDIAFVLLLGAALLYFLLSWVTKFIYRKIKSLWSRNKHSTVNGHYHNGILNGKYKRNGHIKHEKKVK
# Experiment: CGT enzyme assay, RapidFire/MS/MS readout (Table 1 ranges with one asterisk *)
# Assay type: biochemical
# Details: RapidFire method (range with one asterisk *)
# Summary of the method: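 IC50s come from variable-slope dose-response fits of internal-standard-normalized C6-NBD-dihydro-galactosylceramide, measured by RapidFire/MS/MS (ESI negative). Reactions: 1 h, 37 °C, human CGT-expressing CHO lysate (4 μg), 0.001–50 μM compound, 10 μM NBD-dihydro-ceramide, 17.5 μM UDP-galactose, 0.5% DMSO, pH 7.2; 0.01% Tween 80 added for ** values.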
row,SMILES,IC50
1,"NC1CC2CCC(C1)N2C(=O)[C@H](NS(=O)(=O)c1ccc2cc(OC3CCCC3)ccc2c1)C(F)(F)c1ccc(-c2ccc(C(F)(F)F)cc2)cc1 (stereo partly drawn) [Compound 55-2, N-((2S)-3-(3-amino-8-azabicyclo[3.2.1]octan-8-yl)-1,1-difluoro-3-oxo-1-(4′-(trifluoromethyl)-[1,1′-biphenyl]-4-yl)propan-2-yl)-6-(cyclopentyloxy)naphthalene-2-sulfonamide trifluoroacetate]",1 to 10 µM
2,"NC1CC2CCC(C1)N2C(=O)[C@H](NS(=O)(=O)c1ccc2cc(OC3CCCC3)ccc2c1)C(F)(F)c1ccc(OC2CCCCC2)cc1 (stereo partly drawn) [Compound 102-2, N-((2S)-3-(3-amino-8-azabicyclo[3.2.1]octan-8-yl)-1-(4-(cyclohexyloxy)phenyl)-1,1-difluoro-3-oxopropan-2-yl)-6-(cyclopentyloxy)naphthalene-2-sulfonamide]",1 to 10 µM
3,"NC1CC2CCC(C1)N2C(=O)[C@H](NS(=O)(=O)c1ccc2cc(OC3CCCC3)ccc2c1)C(F)(F)c1cccc(Oc2ccccc2)c1 (stereo partly drawn) [Compound 107-2, N-((2S)-3-(3-amino-8-azabicyclo[3.2.1]octan-8-yl)-1,1-difluoro-3-oxo-1-(3-phenoxyphenyl)propan-2-yl)-6-(cyclopentyloxy)naphthalene-2-sulfonamide]",1 to 10 µM
4,"COc1cc(C(F)(F)[C@@H](NS(=O)(=O)c2ccc3cc(OC4CCCC4)ccc3c2)C(=O)N2C3CCC2CC(N)C3)ccc1Cl (single isomer, unassigned) [Compound 124-2]",1 to 10 µM
5,"COc1cc(C(F)(F)[C@H](NS(=O)(=O)c2ccc(OCC3CCCCC3)cc2)C(=O)N2CCC(N)CC2)ccc1Cl [Compound 129-1, (R)—N-(3-(4-aminopiperidin-1-yl)-1-(4-chloro-3-methoxyphenyl)-1,1-difluoro-3-oxopropan-2-yl)-4-(cyclohexylmethoxy)benzenesulfonamide]",1 to 10 µM
6,"NC1CC2CCC(C1)N2C(=O)[C@H](NS(=O)(=O)c1ccc(OCC2CCCC2)cc1)C(F)(F)c1ccc(C(F)(F)F)cc1 (stereo partly drawn) [Compound 60-2, N-((2S)-3-(3-amino-8-azabicyclo[3.2.1]octan-8-yl)-1,1-difluoro-3-oxo-1-(4-(trifluoromethyl)phenyl)propan-2-yl)-4-(cyclopentylmethoxy)benzenesulfonamide]",10 to 30 µM
7,"CN([C@@H](C(=O)N1C2CCC1CC(N)C2)C(F)(F)c1ccc(Oc2ccccc2)cc1)S(=O)(=O)c1ccc2cc(OC3CCCC3)ccc2c1 (stereo partly drawn) [Compound 87-2, N-((2S)-3-(3-amino-8-azabicyclo[3.2.1]octan-8-yl)-1,1-difluoro-3-oxo-1-(4-phenoxyphenyl)propan-2-yl)-6-(cyclopentyloxy)-N-methylnaphthalene-2-sulfonamide trifluoroacetate]",1 to 10 µM
8,"CN([C@@H](C(=O)N1CCC(N)CC1)C(F)(F)c1ccc(Oc2ccccc2)cc1)S(=O)(=O)c1ccc2cc(OC3CCCC3)ccc2c1 [Compound 62-2, (S)—N-(3-(4-aminopiperidin-1-yl)-1,1-difluoro-3-oxo-1-(4-phenoxyphenyl)propan-2-yl)-6-(cyclopentyloxy)-N-methylnaphthalene-2-sulfonamide trifluoroacetate]",1 to 10 µM
9,"NC1CC2CCC(C1)N2C(=O)[C@H](NS(=O)(=O)c1ccc2c(cnn2CC2CCCC2)c1)C(F)(F)c1ccc(-c2ccc(Cl)cc2)cc1 (stereo partly drawn) [Compound 94-2, N-((2S)-3-(3-amino-8-azabicyclo[3.2.1]octan-8-yl)-1-(4′-chloro-[1,1′-biphenyl]-4-yl)-1,1-difluoro-3-oxopropan-2-yl)-1-(cyclopentylmethyl)-1H-indazole-5-sulfonamide]",10 to 30 µM
10,"NC1CCN(C(=O)[C@@H](NS(=O)(=O)c2ccc(OCC3CCCCC3)cc2)C(F)(F)c2ccc(OC3CCCCC3)cc2)CC1 [Compound 103-1, (R)—N-(3-(4-aminopiperidin-1-yl)-1-(4-(cyclohexyloxy)phenyl)-1,1-difluoro-3-oxopropan-2-yl)-4-(cyclohexylmethoxy)benzenesulfonamide]",< 1 µM
11,"CN([C@H](C(=O)N1CCC(N)CC1)C(F)(F)c1ccc(Oc2ccccc2)cc1)S(=O)(=O)c1ccc2cc(OC3CCCC3)ccc2c1 [Compound 62-1, (R)—N-(3-(4-aminopiperidin-1-yl)-1,1-difluoro-3-oxo-1-(4-phenoxyphenyl)propan-2-yl)-6-(cyclopentyloxy)-N-methylnaphthalene-2-sulfonamide trifluoroacetate]",1 to 10 µM
12,"NC1CCN(C(=O)[C@H](NS(=O)(=O)c2ccc3cc(OC4CCCC4)ccc3c2)C(F)(F)c2ccc(C(F)(F)F)cc2)CC1 [Compound 71-2, (S)—N-(3-(4-aminopiperidin-1-yl)-1,1-difluoro-3-oxo-1-(4-(trifluoromethyl)phenyl)propan-2-yl)-6-(cyclopentyloxy)naphthalene-2-sulfonamide]",1 to 10 µM
13,"CCOc1ccc(C(F)(F)[C@@H](C(=O)N2C3CCC2CC(N)C3)N(C)S(=O)(=O)c2ccc3cc(OC4CCCC4)ccc3c2)cc1 (stereo partly drawn) [Compound 114-1, N-((2R)-3-(3-amino-8-azabicyclo[3.2.1]octan-8-yl)-1-(4-ethoxyphenyl)-1,1-difluoro-3-oxopropan-2-yl)-6-(cyclopentyloxy)-N-methylnaphthalene-2-sulfonamide]",1 to 10 µM
14,"NC1CC2CCC(C1)N2C(=O)[C@@H](NS(=O)(=O)c1ccc2cc(OC3CCCC3)ccc2c1)C(F)(F)c1ccc(-c2ccc(C(F)(F)F)cc2)cc1 (stereo partly drawn) [Compound 55-1, N-((2R)-3-(3-amino-8-azabicyclo[3.2.1]octan-8-yl)-1,1-difluoro-3-oxo-1-(4′-(trifluoromethyl)-[1,1′-biphenyl]-4-yl)propan-2-yl)-6-(cyclopentyloxy) naphthalene-2-sulfonamide trifluoroacetate]",< 1 µM
15,"CCCCOc1ccc(C(F)(F)[C@H](C(=O)N2CCC(N)CC2)N(C)S(=O)(=O)c2ccc3cc(OC4CCCC4)ccc3c2)cc1 [Compound 53-2, (S)—N-(3-(4-aminopiperidin-1-yl)-1-(4-butoxyphenyl)-1,1-difluoro-3-oxopropan-2-yl)-6-(cyclopentyloxy)-N-methylnaphthalene-2-sulfonamide]",10 to 30 µM
16,"CN([C@H](C(=O)N1C2CCC1CC(N)C2)C(F)(F)c1ccc(OCCN2CCOCC2)cc1)S(=O)(=O)c1ccc2cc(OC3CCCC3)ccc2c1 (stereo partly drawn) [Compound 115-1, N-((2R)-3-(3-amino-8-azabicyclo[3.2.1]octan-8-yl)-1,1-difluoro-1-(4-(2-morpholinoethoxy)phenyl)-3-oxopropan-2-yl)-6-(cyclopentyloxy)-N-methylnaphthalene-2-sulfonamide]",1 to 10 µM
17,"NCC1CCN(C(=O)[C@H](NS(=O)(=O)c2ccc3cc(OC4CCCC4)ccc3c2)C(F)(F)c2ccc(Br)cc2)CC1 [Compound 57-2, (S)—N-(3-(4-(aminomethyl)piperidin-1-yl)-1-(4-bromophenyl)-1,1-difluoro-3-oxopropan-2-yl)-6-(cyclopentyloxy)naphthalene-2-sulfonamide trifluoroacetate]",10 to 30 µM
18,"N[C@H]1CCCN(C(=O)[C@H](NS(=O)(=O)c2ccc3cc(OC4CCCC4)ccc3c2)C(F)(F)c2ccc(Br)cc2)C1 [Compound 132-2, N—((S)-3-((S)-3-aminopiperidin-1-yl)-1-(4-bromophenyl)-1,1-difluoro-3-oxopropan-2-yl)-6-(cyclopentyloxy)naphthalene-2-sulfonamide trifluoroacetate]",10 to 30 µM
19,"CN([C@H](C(=O)N1C2CCC1CC(N)C2)C(F)(F)c1ccc(Cl)cc1)S(=O)(=O)c1ccc2cc(OC3CCCC3)ccc2c1 (stereo partly drawn) [Compound 52-1, N-((2R)-3-(3-amino-8-azabicyclo[3.2.1]octan-8-yl)-1-(4-chlorophenyl)-1,1-difluoro-3-oxopropan-2-yl)-6-(cyclopentyloxy)-N-methylnaphthalene-2-sulfonamide]",< 1 µM
20,"COc1cc(C(F)(F)[C@H](NS(=O)(=O)c2ccc3cc(OC4CCCC4)ccc3c2)C(=O)N2C3CCC2CC(N)C3)ccc1-c1ccc(Cl)cc1 (stereo partly drawn) [Compound 135-1, N-((2R)-3-(3-amino-8-azabicyclo[3.2.1]octan-8-yl)-1-(4′-chloro-2-methoxy-[1,1′-biphenyl]-4-yl)-1,1-difluoro-3-oxopropan-2-yl)-6-(cyclopentyloxy) naphthalene-2-sulfonamide trifluoroacetate]",< 1 µM
21,"N[C@@H]1CCN(C(=O)[C@@H](NS(=O)(=O)c2ccc3cc(OC4CCCC4)ccc3c2)C(F)(F)c2ccc(Br)cc2)C1 [Compound 139-1, N—((R)-3-((R)-3-aminopyrrolidin-1-yl)-1-(4-bromophenyl)-1,1-difluoro-3-oxopropan-2-yl)-6-(cyclopentyloxy)naphthalene-2-sulfonamide]",< 1 µM
22,"COc1ccc(C(F)(F)[C@@H](NS(=O)(=O)c2ccc3cc(OC4CCCC4)ccc3c2)C(=O)N2C3CCC2CC(N)C3)cc1 (stereo partly drawn) [Compound 45-2, N-((2S)-3-(3-amino-8-azabicyclo[3.2.1]octan-8-yl)-1,1-difluoro-1-(4-methoxyphenyl)-3-oxopropan-2-yl)-6-(cyclopentyloxy)naphthalene-2-sulfonamide]",1 to 10 µM
